The values below come from article PMC7570620, “Synthesis and Evaluation of the Antitumor Activity of Novel 1-(4-Substituted phenyl)-2-ethyl Imidazole Apoptosis Inducers In Vitro” (Molecules, 2020).

One series concerns SGC-7901. Nature of the series: MTT cell viability assay, SGC-7901. Type of series: cell-based. The following applies: Homo sapiens, 24 h incubation, mean ± SD, n = 4. As to the method:
(§1) The synthesized compounds were subjected to a cytotoxicity assay using the MTT method, as described previously. IC50 is defined as the drug concentration causing a 50% reduction in cell numbers compared to the untreated control. For screening, we evaluated the effects of the compounds on the growth of three cancer cell lines (A549, SGC-7901, and HeLa). In addition, their toxicities were tested using one normal cell line (L-02). The results are the averages of four separate measurements. MTX and 5-FU served as positive controls.
(§2) The three cancer cell lines namely the human lung cancer cell line (A549), human cervical cancer cell line (HeLa), human gastric carcinoma cell line (SGC-7901), and normal liver cell line (L-02) were acquired from the American Type Culture Collection (Manassas, VA, USA). A549 and SGC-7901 cells were routinely cultured in RPMI-1640. In addition, HeLa and L-02 cells were routinely cultured in DMEM. Media was supplemented with 10% fetal bovine serum (FBS). Cells were maintained at subconfluency at 37 °C in humidified air containing 5% CO2. The cells were monitored daily and maintained at 80% cell density. All compounds tested were dissolved in DMSO and then diluted by the culture medium before the treatment of cultured cells.
(§3) Cytotoxicity of the tested samples was measured against each cell line using the 3-(4,5-dimethylthiazol-2-yl)-2,5-diphenyltetrazolium bromide (MTT) cell viability assay (Maher et al., 2019). Cancer cells (A549, SGC-7901, and HeLa) and L-02 normal cells were harvested during the logarithmic growth phase. All cells were seeded in 96-well plates at 10^4 cells/well and were treated with 5-fluorouracil (5-FU), methotrexate (MTX), and the tested samples for 24 h at final concentrations of […]. Next, 20 µL of freshly prepared MTT (Solarbio) solution (5 mg/mL of MTT in PBS) was added to each well, and the cells were cultured for 4 h at 37 °C. The supernatants were removed and resolved with 100 µL of DMSO, and the cells were shocked for 10 min at 37 °C. The optical density of the samples was measured at 490 nm using a microplate luminometer. Cell viability was expressed as the percentage change in absorbance compared to the control values.
(In general: Formazan colour is commonly taken as a measure of viable cells.)

The subject of series [1] is HeLa cells. The experiment in a line: Hoechst/PI double staining apoptosis analysis. The following applies: 24 h, 4f 3.24 µM (legend: 4 µM), 5-FU 18 µM. It counts as cell-based, human. Here is the method:
Apoptosis and necrosis were analyzed by Hoechst/propidium iodide (CA1120, Solarbio, Beijing, China) double staining. HeLa cells were seeded in six-well plates (10^4 cells/well) and treated with IC50 concentrations of 5-FU or one of the tested derivatives for 0, 3, 6, 12, and 24 h. Next, the cells were collected and washed once in phosphate-buffered saline (PBS). The cells were then resuspended in 195 µL of binding buffer, and dual staining was performed with 3 µL of Hoechst and 3 µL of PI. Next, the cells were incubated for 15 min at room temperature in the dark. Apoptotic cells were analyzed using the EVOS FL Auto Cell Imaging System (Thermo Fisher Scientific, Shanghai, China).
(A) HeLa cells were treated with 4 µM of 4f or 18 µM of 5-FU for 0, 3, 6, 12, or 24 h and were stained using the Hoechst/PI solution. Morphology and fluorescence intensity were examined under a fluorescence microscope (magnification: ×200). (B) Quantification of the percentages of apoptotic cells. Error bars indicate the mean ± SD of three independent experiments (* p < 0.05, ** p < 0.01, and *** p < 0.001 indicate significant differences).

The test system of the next series is A549. The experiment in a line: MTT cell viability assay, A549. Type of series: cell-based. The following applies: Homo sapiens, 24 h incubation, mean ± SD, n = 4. As to the method:
as §1, §2, §3

For another series, the system named is HeLa. The experiment in a line: MTT cell viability assay, HeLa. Type of series: cell-based. The following applies: Homo sapiens, 24 h incubation, mean ± SD, n = 4. Here is the method: as §1, §2, §3
Another series concerns L-02. The experiment in a line: MTT cytotoxicity in normal cell line L-02. Type of series: cell-based. The following applies: for IC50: Homo sapiens, L02, normal cell line L-02, MTT; for Selectivity Index A549: IC50 in normal cells (L-02)/IC50 in tumor cells (A549); for Selectivity Index HeLa: IC50 in normal cells (L-02)/IC50 in tumor cells (HeLa); for Selectivity Index SGC-7901: IC50 in normal cells (L-02)/IC50 in tumor cells (SGC-7901). Here is the method:
as §1
The lack of selectivity between normal and cancer cells is one of the primary limitations of antitumor drugs. We evaluated the cytotoxicity of compounds 4c, 4e–4i, 4l, 4m, and 4q in the normal cell line L-02 to determine the selectivity index (defined as the ratio of cytotoxicity in L-02 cells compared to that in cancer cells). […] Compound 4q yielded satisfactory SI values in HeLa and SGC-7901 cells but an unsatisfactory SI value in A549 cells. […] Compound 4f was selected for the subsequent biological studies.
as §2, §3

In series [2] the test system is HeLa cells. The experiment in a line: Western blot of apoptotic proteins. It counts as cell-based, human. Here is the method:
The results of the Western blot analysis were expressed as the relative ratio of the specific compound band compared with the internal reference.
For performing Western blot analysis, the cells were washed with PBS and lysis buffer (P0013B, Beyotime). After incubation on ice for 30 min, the homogenate was centrifuged at 12,000g for 15 min at 4 °C, and the supernatant was used for protein analysis. Protein concentration was determined using the BCA protein assay (P0012S, Beyotime, Beijing, China). Sodium dodecyl sulfate-polyacrylamide gel electrophoresis was performed using the Bio-Rad Mini-Protean Tetra System (Bio-Rad, Hercules, CA, US). The proteins on the gel were then transferred onto polyvinylidene fluoride membranes (PVDF, Millipore, Beijing, China) for 2 h at 200 mA and blocked for 2 h with 5% skim milk at room temperature to prevent nonspecific binding. The blots were probed with the indicated primary antibodies followed by horseradish peroxidase (HRP)-conjugated goat anti-rabbit or anti-mouse IgG (Beyotime). Rabbit anti-Bcl-2 and mouse anti-actin antibodies were purchased from Beyotime. Rabbit anti-Bax, anti-Caspass-3, and anti-PARP monoclonal antibodies were purchased from Cell Signaling Technology (Danvers, MA, USA).
Figure 4 Apoptotic effects of 4f on HeLa cells. (A) The effect of compound 4f on the expression levels of Bax, Bcl-2, Caspase 3, and cle-PARP in HeLa cells was analyzed using Western blotting. (B) Densitometric quantification. * p < 0.05, ** p < 0.01, and *** p < 0.001 relative to the control group (0 h). Bcl-2, B-cell lymphoma 2; Bax, […]; cle-PARP, cleaved poly ADP-ribose polymerase.

In series [3] the test system is lung and liver cancer cells. The experiment in a line: Preliminary in vitro antitumor activity of lead compounds I and II. It counts as cell-based. The following applies: preliminary work of this paper; Figure 2. An excerpt:
To identify new apoptosis-inducing candidates, we attempted to modify the structure of imidazole and its analogs. Imidazole and the related azole moiety are significant pharmacophores in various clinical drugs including antitumor agents. […] The antitumor potency of Tanshinone-IIA has been enhanced by the introduction of an imidazole moiety (Figure 1, TA12) in order to block cancer cell invasion and metastasis in vivo [16]. […] Previously, we reported a series of imidazole-fused quinoline compound I and its open-chain analogue compound II, 2-ethyl-1-phenyl-1H-imidazole (Figure 2). […] We speculated that its flexible structure caused this difference in antitumor activity. However, both their antitumor activities were not strong enough as a potent antitumor agent. So, using compound II as a lead, we designed and synthesized several structurally modified derivatives. The effects of LogP and hydrogen bonds on bioavailability were considered, and several aliphatic and aromatic amines were selected and linked to the 1-phenyl imidazole scaffold using a succinyl group as a cross-linker. This approach yielded several novel imidazole derivatives with cLogP values ranging from 1.99 to 4.34.
Figure 2 Title compounds design. Yellow: pharmacophore and Blue: aliphatic/aromatic amine. TEXT PRINTED IN THE PICTURE: I: 300 uM< IC50 < 500 uM | II: 100 uM < IC50 < 300 uM

For the compound `CCc1nccn1-c1ccc(NC(=O)CCC(=O)Nc2ccc(Br)cc2)cc1` [Compound 4f, 1-(4-(3-(4-Br-Phenylcarbamoyl)propionamide)phenyl)-2-ethyl Imidazol], half-maximal inhibition in the series with SGC-7901 (IC50) was put at 5.37 ± 0.85 µM. Besides, in the series on HeLa cells [1], the apoptosis rate worked out at 68.2%. Besides, 6.6 ± 0.36 µM corresponded to half-maximal inhibition in the series on A549 (IC50). Besides, in the series on HeLa, it took 3.24 ± 0.23 µM to reach half-maximal inhibition (IC50). Moreover, in the series with L-02, the IC50 (as a rule, the midpoint of a concentration-inhibition curve) was found to be 152 ± 10.8 µM; the “Selectivity Index A549” value was found to be 23.03; the “Selectivity Index HeLa” value turned out to be 46.92; the “Selectivity Index SGC-7901” value was found to be 28.31. The “Selectivity index, tolerance of normal L-02 cells versus tumor cells” value in the series on L-02 (range over the three tumor cell lines) is 23–46 fold. In the series on HeLa cells [2] (3.24 µM, time-dependent 3–24 h), the “expression of Bcl-2” value is listed as “decreased” and the “expression of the Bax protein” value was “significantly increased”. This compound gave a Caspase-3 expression increase with HeLa cells [2] (24 h after treatment, 4f 3.24 µM) of 134.3%.

On to `CCc1nccn1-c1ccc(NC(=O)CCC(=O)NCc2ccccc2Cl)cc1` [Compound 4q], for which the melting point (in general, the temperature, or range, at which the solid turns liquid) was in the range of 116 to 120 °C. This compound also registered an IC50 in the series with SGC-7901 of 2.96 ± 0.29 µM. In addition, the IC50 with A549 is 31.1 ± 3.81 µM. Besides, the IC50 with HeLa was 4.91 ± 0.71 µM. Also, in the series with L-02, the IC50 was > 500 µM and the “Selectivity Index SGC-7901” value is listed as >168.92.

In the series on SGC-7901, `O=c1[nH]cc(F)c(=O)[nH]1` [Compound 5-FU, 5-fluorouracil, reference compound] came in with an IC50 of 16.4 ± 0.88 µM. The compound further gave an apoptosis rate in the series with HeLa cells [1] of 39.6%. In the series on A549, this compound yielded an IC50 of 22.6 ± 2.59 µM. Moreover, it took 18.3 ± 1.52 µM to reach half-maximal inhibition in the series on HeLa (IC50). Besides, in the series on L-02, the IC50 came out at 74.7 ± 7.85 µM, the “Selectivity Index A549” value is 3.30, the “Selectivity Index HeLa” value stood at 4.08 and the “Selectivity Index SGC-7901” value was 4.57.

With `CCc1nccn1-c1ccccc1` [II, 2-ethyl-1-phenyl-1H-imidazole], the IC50 in series [3] was in the range of 100 to 300 µM.
